# Measured values from BindingDB's records for doi:10.1016/0960-894X(95)00583-F (1996).
# pKi: −log10 of the molar value.
# Experiment: Compound was evaluated for binding affinity against [3H]- Cl-DPDPE labeled Opioid receptor delta 1 in guinea-pig brain homogenate.
row,SMILES,pKi
1,"O=C(/C=C/c1ccc(Cl)cc1)N[C@@H]1CC[C@@]2(O)[C@H]3Cc4ccc(O)c5c4C2(CCN3CC2CC2)[C@H]1O5 [1N-[4-cyclopropylmethyl-10,17-dihydroxy-(5R,13R,14R,17S)-12-oxa-4-azapentacyclo[9.6.1.01,13.05,17.07,18]octadeca-7(18),8,10-trien-14-yl]-3-(4-chlorophenyl)-(E)-2-propenamide]",8.30
2,"Cc1ccc(/C=C/C(=O)N[C@@H]2CC[C@@]3(O)[C@H]4Cc5ccc(O)c6c5C3(CCN4CC3CC3)[C@H]2O6)cc1 [1N-[4-cyclopropylmethyl-10,17-dihydroxy-(5R,13R,14R,17S)-12-oxa-4-azapentacyclo[9.6.1.01,13.05,17.07,18]octadeca-7(18),8,10-trien-14-yl]-3-(4-methylphenyl)-(E)-2-propenamide]",8.02
3,"O=C(/C=C/c1ccc([N+](=O)[O-])cc1)N[C@@H]1CC[C@@]2(O)[C@H]3Cc4ccc(O)c5c4C2(CCN3CC2CC2)[C@H]1O5 [1N-[4-cyclopropylmethyl-10,17-dihydroxy-(5R,13R,14R,17S)-12-oxa-4-azapentacyclo[9.6.1.01,13.05,17.07,18]octadeca-7(18),8,10-trien-14-yl]-3-(4-nitrophenyl)-(E)-2-propenamide]",8.29
4,"O=C(/C=C/c1ccccc1)N[C@@H]1CC[C@@]2(O)[C@H]3Cc4ccc(O)c5c4[C@@]2(CCN3CC2CC2)[C@H]1O5 [17-Cyclopropylmethyl-3,14beta-dihydroxy-4,5alpha-epoxy-6beta-(cinnamoylamino)morphinan]",8.51
5,COC(=O)/C=C/C(=O)N[C@@H]1CC[C@@]2(O)[C@H]3Cc4ccc(O)c5c4[C@@]2(CCN3CC2CC2)[C@H]1O5 [Beta-Funeltrexamine],7.66
